Key:
BTK-WT = target: T1, BTK-WT (Homo sapiens, UniProt Q06187); assay: Btk in vitro inhibitory activity (one of Method A TR-FRET, Method B electrophoretic mobility shift, Method C radiometric filter binding); assay type: biochemical; conditions: D-compounds panel data; read-out: IC50 BTK-WT
T1 construct: purified from insect cells as a full-length construct containing an N-terminal 6X-His tag; His6 (N); made in house; host or cells: insect cells (baculovirus Sf21 in Method B)

TEC = target: T2, TEC (Homo sapiens, UniProt P42680); assay: Inhibition of a panel of kinases, in vitro HotSpot kinase assay: TEC; assay type: biochemical; conditions: D-compounds panel data; 1 μM ATP
T2 sequence (P42680 1-631): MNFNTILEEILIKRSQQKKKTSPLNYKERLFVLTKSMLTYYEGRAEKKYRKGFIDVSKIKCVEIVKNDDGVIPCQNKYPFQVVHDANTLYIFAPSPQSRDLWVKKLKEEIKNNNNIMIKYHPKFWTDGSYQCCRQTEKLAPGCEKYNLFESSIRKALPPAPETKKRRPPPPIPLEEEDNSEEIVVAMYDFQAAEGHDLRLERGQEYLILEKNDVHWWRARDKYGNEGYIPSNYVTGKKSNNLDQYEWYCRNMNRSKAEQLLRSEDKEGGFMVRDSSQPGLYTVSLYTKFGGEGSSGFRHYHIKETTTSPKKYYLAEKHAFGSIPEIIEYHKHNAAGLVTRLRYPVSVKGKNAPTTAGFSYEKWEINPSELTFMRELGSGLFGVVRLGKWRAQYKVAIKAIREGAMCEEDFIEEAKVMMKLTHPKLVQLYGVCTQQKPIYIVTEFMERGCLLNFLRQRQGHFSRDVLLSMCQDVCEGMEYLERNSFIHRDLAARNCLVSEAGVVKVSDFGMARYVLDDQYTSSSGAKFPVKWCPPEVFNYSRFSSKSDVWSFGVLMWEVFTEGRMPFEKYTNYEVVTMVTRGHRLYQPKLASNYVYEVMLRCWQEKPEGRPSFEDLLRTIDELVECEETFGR
Experimental: The degree of inhibition of a panel of kinases is determined using the in vitro HotSpot kinase assay (purified enzymes, ^33P-ATP, an appropriate substrate and 1 μM ATP).

T1 sequence (Q06187 whole entry): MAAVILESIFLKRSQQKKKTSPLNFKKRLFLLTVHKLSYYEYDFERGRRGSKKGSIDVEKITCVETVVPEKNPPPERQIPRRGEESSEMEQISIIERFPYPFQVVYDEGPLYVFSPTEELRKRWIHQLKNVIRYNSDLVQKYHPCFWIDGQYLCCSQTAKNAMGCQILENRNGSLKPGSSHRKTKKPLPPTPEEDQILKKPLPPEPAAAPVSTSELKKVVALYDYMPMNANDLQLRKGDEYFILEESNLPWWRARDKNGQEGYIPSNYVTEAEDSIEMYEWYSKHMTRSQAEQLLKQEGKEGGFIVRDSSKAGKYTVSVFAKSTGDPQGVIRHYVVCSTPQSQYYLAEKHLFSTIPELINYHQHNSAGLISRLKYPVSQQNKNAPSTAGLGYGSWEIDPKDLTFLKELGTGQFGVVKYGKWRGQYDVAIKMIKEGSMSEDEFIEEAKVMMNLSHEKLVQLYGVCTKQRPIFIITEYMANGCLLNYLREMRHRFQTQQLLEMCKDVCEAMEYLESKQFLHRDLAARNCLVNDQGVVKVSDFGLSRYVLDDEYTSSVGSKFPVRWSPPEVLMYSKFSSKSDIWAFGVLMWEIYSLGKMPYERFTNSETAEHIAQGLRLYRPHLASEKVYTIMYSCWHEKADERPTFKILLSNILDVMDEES

IC50 (BTK-WT) [nM] | IC50 (TEC) [nM] | Compound
10 to 100 | 100 to 1000 | C[C@@H]1CC[C@@H](NC(=O)c2ccc(C3CC3)cc2)CN1c1cnc(C(N)=O)c(Nc2cnn(C)c2)n1 [Example D-143, 5-[(2R,5R)-5-(4-cyclopropylbenzamido)-2-methylpiperidin-1-yl]-3-[(1-methyl-1H-pyrazol-4-yl)amino]pyrazine-2-carboxamide]
100 to 1000 | 1000 to 10000 | C[C@H]1CC[C@H](NC(=O)c2ccc(C3CC3)cc2)CN1c1cnc(C(N)=O)c(Nc2cnn(C)c2)n1 [Example D-144, 5-[(2S,5S)-5-(4-cyclopropylbenzamido)-2-methylpiperidin-1-yl]-3-[(1-methyl-1H-pyrazol-4-yl)amino]pyrazine-2-carboxamide]
10 to 100 | 1000 to 10000 | C[C@@H]1CC[C@H](NC(=O)c2ccc(C3CC3)cc2)CN1c1cnc(C(N)=O)c(Nc2cnn(C)c2)n1 [Example D-145, 5-[(2R,5S)-5-(4-cyclopropylbenzamido)-2-methylpiperidin-1-yl]-3-[(1-methyl-1H-pyrazol-4-yl)amino]pyrazine-2-carboxamide]
≤ 10 | 10 to 100 | C[C@@H]1[C@H](NC(=O)c2ccc(C3CC3)cc2)CCCN1c1cnc(C(N)=O)c(Nc2ccc(N3CCN(C)CC3)c(F)c2)n1 [Example D-146, 5-[(2R,3R)-3-(4-cyclopropylbenzamido)-2-methylpiperidin-1-yl]-3-{[3-fluoro-4-(4-methylpiperazin-1-yl)phenyl]amino}pyrazine-2-carboxamide]
10 to 100 | 100 to 1000 | Cn1cc(Nc2nc(N3CCCC4(C3)CN(c3ccc(C5CC5)cc3)C(=O)O4)cnc2C(N)=O)cn1 [Example D-147, 5-[3-(4-cyclopropylphenyl)-2-oxo-1-oxa-3,7-diazaspiro[4.5]decan-7-yl]-3-[(1-methyl-1H-pyrazol-4-yl)amino]pyrazine-2-carboxamide]
10 to 100 | 100 to 1000 | Cc1cccc(-c2cnc(C3CCCN(c4cnc(C(N)=O)c(Nc5cnn(C)c5)n4)C3)[nH]2)c1 [Example D-148, 3-[(1-methyl-1H-pyrazol-4-yl)amino]-5-{3-[5-(3-methylphenyl)-1H-imidazol-2-yl]piperidin-1-yl}pyrazine-2-carboxamide]
10 to 100 | 100 to 1000 | C[C@@H]1CC[C@H](NC(=O)c2ccc(C3CC3)cc2)CN1c1cnc(C(N)=O)c(Nc2ccc(N3CCN(C)CC3)c(F)c2)n1 [Example D-149, 5-[(2R,5 S)-5-(4-cyclopropylbenzamido)-2-methylpiperidin-1-yl]-3-{[3-fluoro-4-(4-methylpiperazin-1-yl)phenyl]amino}pyrazine-2-carboxamide]
≤ 10 | ≤ 10 | C[C@H]1CC[C@@H](NC(=O)c2ccc(C3CC3)cc2)CN1c1cnc(C(N)=O)c(Nc2ccc(N3CCN(C)CC3)c(F)c2)n1 [Example D-150, 5-[(2S,5R)-5-(4-cyclopropylbenzamido)-2-methylpiperidin-1-yl]-3-{[3-fluoro-4-(4-methylpiperazin-1-yl)phenyl]amino}pyrazine-2-carboxamide]
10 to 100 | 10 to 100 | C[C@@H]1CC[C@H](NC(=O)N(C)C)CN1c1cnc(C(N)=O)c(Nc2cnn(C)c2)n1 [Example D-151, 5-[(2R,5S)-5-[(dimethylcarbamoyl)amino]-2-methylpiperidin-1-yl]-3-[(1-methyl-1H-pyrazol-4-yl)amino]pyrazine-2-carboxamide]
10 to 100 | 10 to 100 | C[C@H]1CC[C@@H](NC(=O)N(C)C)CN1c1cnc(C(N)=O)c(Nc2cnn(C)c2)n1 [Example D-152, 5-[(2S,5R)-5-[(dimethylcarbamoyl)amino]-2-methylpiperidin-1-yl]-3-[(1-methyl-1H-pyrazol-4-yl)amino]pyrazine-2-carboxamide]
≤ 10 | ≤ 10 | C[C@@H]1CC[C@H](NC(=O)c2ccc(C3CC3)cc2)CN1c1cnc(C(N)=O)c(Nc2ccc(N3CCN(C)CC3)cc2)n1 [Example D-153, 5-[(2R,5S)-5-(4-cyclopropylbenzamido)-2-methylpiperidin-1-yl]-3-{[4-(4-methylpiperazin-1-yl)phenyl]amino}pyrazine-2-carboxamide]
≤ 10 | 100 to 1000 | C[C@H]1CC[C@@H](NC(=O)c2ccc(C3CC3)cc2)CN1c1cnc(C(N)=O)c(Nc2ccc(N3CCN(C)CC3)cc2)n1 [Example D-154, 5-[(2S,5R)-5-(4-cyclopropylbenzamido)-2-methylpiperidin-1-yl]-3-{[4-(4-methylpiperazin-1-yl)phenyl]amino}pyrazine-2-carboxamide]
≤ 10 | 10 to 100 | CN(C)c1ccc2c(=O)n([C@@H]3CCCN(c4cnc(C(N)=O)c(Nc5cnn(C)c5)n4)C3)ccc2c1 [Example D-155, 5-[(3R)-3-[6-(dimethylamino)-1-oxo-1,2-dihydroisoquinolin-2-yl]piperidin-1-yl]-3-[(1-methyl-1H-pyrazol-4-yl)amino]pyrazine-2-carboxamide]
≤ 10 | 10 to 100 | CN(C)c1ccc2c(c1)CCN([C@@H]1CCCN(c3cnc(C(N)=O)c(Nc4cnn(C)c4)n3)C1)C2=O [Example D-156, 5-[(3R)-3-[6-(dimethylamino)-1-oxo-1,2,3,4-tetrahydroisoquinolin-2-yl]piperidin-1-yl]-3-[(1-methyl-1H-pyrazol-4-yl)amino]pyrazine-2-carboxamide]
≤ 10 | ≤ 10 | C[C@H]1CC[C@@H](NC(=O)c2ccc(C(C)(C)O)cc2)CN1c1nnc(C(N)=O)c(Nc2cnn(C)c2)n1 [Example D-157, 3-[(2S,5R)-5-[4-(2-hydroxypropan-2-yl)benzamido]-2-methylpiperidin-1-yl]-5-[(1-methyl-1H-pyrazol-4-yl)amino]-1,2,4-triazine-6-carboxamide]
≤ 10 | 10 to 100 | Cc1cc(Nc2nc(N3CCC[C@@H](NC(=O)c4ccc(C(C)(C)O)cc4)C3)cnc2C(N)=O)sn1 [Example D-158, 5-[(3R)-3-[4-(2-hydroxypropan-2-yl)benzamido]piperidin-1-yl]-3-[(3-methyl-1,2-thiazol-5-yl)amino]pyrazine-2-carboxamide]
≤ 10 | ≤ 10 | Cc1cc(Nc2nc(N3CCC[C@@H](NC(=O)c4ccc(C(C)(C)O)cc4)[C@H]3C)cnc2C(N)=O)sn1 [Example D-159, 5-[(2R,3R)-3-[4-(2-hydroxypropan-2-yl)benzamido]-2-methylpiperidin-1-yl]-3-[(3-methyl-1,2-thiazol-5-yl)amino]pyrazine-2-carboxamide]
≤ 10 | ≤ 10 | C[C@@H]1[C@H](NC(=O)c2ccc(C(C)(C)O)c(F)c2)CCCN1c1cnc(C(N)=O)c(Nc2cnn(C)c2)n1 [Example D-160, 5-[(2R,3R)-3-[3-fluoro-4-(2-hydroxypropan-2-yl)benzamido]-2-methylpiperidin-1-yl]-3-[(1-methyl-1H-pyrazol-4-yl)amino]pyrazine-2-carboxamide]
≤ 10 | ≤ 10 | COC(C)(C)c1ccc(C(=O)N[C@@H]2CCCN(c3cnc(C(N)=O)c(Nc4cnn(C)c4)n3)[C@@H]2C)cc1 [Example D-161, 5-[(2R,3R)-3-[4-(2-methoxypropan-2-yl)benzamido]-2-methylpiperidin-1-yl]-3-[(1-methyl-1H-pyrazol-4-yl)amino]pyrazine-2-carboxamide]
≤ 10 | ≤ 10 | C[C@@H]1[C@H](NC(=O)N(C)C)CCCN1c1cnc(C(N)=O)c(Nc2cc(C3CCOCC3)ns2)n1 [Example D-162, 5-[(2R,3R)-3-[(dimethylcarbamoyl)amino]-2-methylpiperidin-1-yl]-3-{[3-(oxan-4-yl)-1,2-thiazol-5-yl]amino}pyrazine-2-carboxamide]
≤ 10 | 10 to 100 | C[C@@H]1[C@H](NC(=O)N(C)C)CCCN1c1cnc(C(N)=O)c(Nc2cc(C3CCN(C4CCCC4)CC3)ns2)n1 [Example D-163, 3-{[3-(1-cyclopentylpiperidin-4-yl)-1,2-thiazol-5-yl]amino}-5-[(2R,3R)-3-[(dimethylcarbamoyl)amino]-2-methylpiperidin-1-yl]pyrazine-2-carboxamide]
10 to 100 | 100 to 1000 | Cc1cc(Nc2nc(N3CCCC(c4ncc(-c5ccccc5)[nH]4)C3)cnc2C(N)=O)sn1 [Example D-164, 3-[(3-methyl-1,2-thiazol-5-yl)amino]-5-[3-(4-phenyl-3H-imidazol-2-yl)piperidin-1-yl]pyrazine-2-carboxamide]
≤ 10 | 10 to 100 | CN1CCN(c2ccc(Nc3nc(N4CCC[C@@H](n5ccc6cc(C7CC7)ccc6c5=O)C4)cnc3C(N)=O)cc2)CC1 [Example D-165, 5-[(3R)-3-(6-cyclopropyl-1-oxo-1,2-dihydroisoquinolin-2-yl)piperidin-1-yl]-3-{[4-(4-methylpiperazin-1-yl)phenyl]amino}pyrazine-2-carboxamide]

Reference: patent US20210070748A1, “INHIBITORS OF BRUTONS TYROSINE KINASE” (Pharmacyclics LLC, priority 2015, published 2021)
